In US20110098301A1, “Pyrimidine Derivatives for Treatment of Hyperproliferative Disorders” (BAYER HEALTHCARE LLC, priority 2005, published 2011):

Test system: HCT116 cells
Assay: Cytotoxic activity: tumor cell proliferation assay (Alamar Blue)
Assay type: cell-based
Settings: Homo sapiens, HCT-116, 72 h with compound, Alamar Blue readout
Method: The following section describes an assay that can be used to characterize compounds of the invention, e.g., to test for the cytotoxic activity of compounds on cells.
Human tumor cells, e.g., HCT116 cells, are seeded in a 96-well plate at 3.0×10^3 cells/well and grown in 100 μl of RPMI complete media (Invitrogen Corporation, Grand Island, N.Y., USA) containing 10% fetal bovine serum (Hyclone, Logan, Utah, USA) and 10 mM HEPES and at 37° C. for 16 h in an incubator with 5% CO2. To each well, 50 μl of additional growth media containing 20 μM to 60 nM concentrations of compound with 0.2% DMSO is added. Cells are grown for another 72 h at 37° C. 20 μl of Alamar Blue (Trek Diagnostic Systems, Inc., Cleveland, Ohio, USA) reagent is added to each well and incubated for 4 h at 37° C. Plates are read in a SpectraMax Gemini (Molecular Devices, CA, USA) with 544 nm excitation and 590 nm emission wavelength. IC50 values are determined by linear regression analysis of log drug concentration versus percent inhibition.

Compound	IC50
Cc1cccc(C)c1-c1cc(Nc2ccc(Oc3ccnc(C(F)(F)F)c3)cc2)nc(N)n1 [Example 335, 6-(2,6-dimethylphenyl)-N^4-(4-{[2-(trifluoromethyl)pyridin-4-yl]oxy}phenyl)pyrimidine-2,4-diamine]	62 nM
Cc1cc(Oc2ccc(Nc3cc(-c4ccc(N)nc4)nc(N)n3)cc2)ccn1 [Example 336, 6-(6-aminopyridin-3-yl)-N^4-{4-[(2-methylpyridin-4-yl)oxy]phenyl}pyrimidine-2,4-diamine]	6 nM
Nc1nc(Nc2ccc(Oc3ccnc(C(F)(F)F)c3)cc2)cc(-c2cncnc2)n1 [Example 337, N^6-(4-{[2-(trifluoromethyl)pyridin-4-yl]oxy}phenyl)-4,5′-bipyrimidine-2,6-diamine]	135 nM
Nc1nc(Nc2ccc(Oc3ccnc(C(F)(F)F)n3)cc2)cc(-c2ccccc2)n1 [Example 338, 6-phenyl-N^4-(4-{[2-(trifluoromethyl)pyrimidin-4-yl]oxy}phenyl)pyrimidine-2,4-diamine]	17 nM
Nc1ccc(-c2cc(Nc3ccc(Oc4ccnc(C(F)(F)F)n4)cc3)nc(N)n2)cn1 [Example 339, 6-(6-aminopyridin-3-yl)-N^4-(4-{[2-(trifluoromethyl)pyrimidin-4-yl]oxy}phenyl)pyrimidine-2,4-diamine]	3 nM
